# According to US20240150321A1, “PYRAZOLYLSULFONAMIDE COMPOUNDS AND THEIR USE IN THERAPY” (HOTSPOT THERAPEUTICS, INC., priority 2022, published 2024):
# Like-named read-outs stand apart in the source and are kept apart here.
# What was measured:
# [1] = molecular target: Avi-tagged FL MALT-1 (Homo sapiens (Human), UniProt Q9UDY8); experiment: MALT-1 Fluorogenic Peptide Cleavage Assay (MALT1 inhibition assay); assay type: biochemical; conditions: Ac-LRSR-AMC peptide substrate, 30 min pre-incubation, 90 min reaction at room temperature
# Procedure: Inhibition of MALT1 activity by the presence of small molecules was evaluated using MALT-1 Fluorogenic Peptide Cleavage Assay. The assay utilizes a quenched AMC-labelled peptide that contains the MALT-1 recognition sequence and cleavage site (LRSR). MALT-1 mediated cleavage of the peptide relieves the quenching and leads to an increase in fluorescence at excitation (342 nm) and emission (441 nm).
# The following reagents were obtained commercially and used to prepare standard reagent formulations as further described below: N-2-hydroxyethylpiperazine-N-2-ethane sulfonic acid (HEPES) (1 M, pH 7.5, stored at 4° C.), sodium citrate (stored at RT), tris(2-carboxyethyl) phosphine hydrochloride (T-CEP) (500 mM, stored at −20° C.), ethylenediaminetetraacetic acid (EDTA) (500 mM, stored at RT), dimethylsulfoxide (DMSO, stored at RT), 3-[(3-cholamido-propyl)dimethylammonio]-1-propane sulphate (CHAPS) (stored at RT), dimethylsulfoxide (DMSO), DMSO (Fisher Scientific, stored at RT), Avi-tagged FL MALT-1 (Pharmaron, stored at −70° C.), Ac-LRSR-AMC Peptide (SM Biochemicals, stored at −20° C.)., and ultrapure water (MILLLI-Q©).
# The standard reagent formulations used in this assay were prepared and stored as follows. A 1.1 M solution of sodium citrate (161.3 g, 500 mL) was prepared and stored at room temperature. A 10% (w/v) CHAPS solution (2.0 g, 20 mL) was prepared and stored at 4° C. A 500 mM HEPES solution having pH of 6.89 was prepared from 200 mL of a 1 M HEPES solution having a pH of 7.5 using concentrated hydrochloric acid and brought to a final volume of 400 mL with MILLI-Q© H2O. The substrate, 10 mM Ac-LRSR-AMC Peptide, was prepared (10 mg, 1.370 mL DMSO) and stored at −20° C.
# Compounds were plated to provide a 2% DMSO final concentration using a ProxiPlate-384 Plus F Black 384-shallow well microplate. The assay-ready plates were equilibrated to room temperature. A reaction buffer (30 mL total volume) was prepared by combining HEPES (pH 6.89, 25 mM, 1.5 mL), sodium citrate (660 mM, 18.0 mL), T-CEP (1 mM, 0.06 mL), EDTA ([…], 0.06 mL), CHAPS (0.05%, 0.15 mL), DMSO (2%, 0.6 mL), and MILLI-Q© H2O (10.23 mL; 9.63 mL when backfilled to 2% DMSO) followed by thorough mixing. DMSO was added only when compound plates had not been DMSO-backfilled to 2%.
# MALT-1 was thawed and kept on ice. Peptide substrate was thawed on the bench under ambient conditions. A MALT-1 enzyme working stock was prepared from Avi-tagged FL MALT-1 (40 nM in a prepared reagent volume of 16.5 μL) and the reaction buffer (13.0 mL). MALT1 working stock (5 μL) was added to each well of the microplate. MALT-1 was pre-incubated with compounds for 30 minutes at room temperature.
# Two substrate working stocks (Km and 10×Km) were prepared. The 1×Km substrate was prepared from Ac-LRSR-AMC Peptide (50 μM in a prepared reagent volume of 35.0 μL) and the reaction buffer (6.965 mL). The 10×Km substrate was prepared from Ac-LRSR-AMC Peptide (280 μM in a prepared reagent volume of 196.0 μL) and the reaction buffer (6.804 mL). The reaction was initiated by the addition of substrate working stock (5 μL, 50 μM) to Km plates and the addition of substrate working stock (5 μL 280 μM) to 10×Km plates. The plates were covered and incubated on the bench at room temperature for 90 minutes.
# Fluorescence intensity was determined using a CLARIOstar microplate reader (BMG LABTECH) using the optimised AMC mode. Before taking readings, a 70% gain was applied on the neutral control well. Compound data were normalised to % Inhibition and used to plot sigmoidal concentration response curves to yield various parameters including IC50.
# [2] = system: NF-kB reporter in Jurkat cells; experiment: NF-kB reporter assay in Jurkat cells stimulated with aCD3/aCD28/PMA; assay type: cell-based
# Procedure: Jurkat cells were maintained in complete RPMI 1640 media supplemented with 10% FBS. Prior to the assay, 120 nL of the serial diluted compound was added in each well of 384-well flat bottom white plate (Corning #3570) by using liquid handler Echo550. Jurkat cells were harvested by centrifugation at 120 g for 10 min and resuspended in fresh RPMI 1640 media without serum. […] (25,000 cells) were seeded in each well of 384-well plate containing compound. After 1 hr incubation at 37° C. in a 5% CO2 incubator, […] of diluted aCD3/aCD28/PMA (final concentration at […] and […], respectively) in RPMI 1640 without serum were added to each well. After incubation at 37° C. in 5% CO2 for 4 hr, […] of One-Glo reagent (Promega #E6120) was added into each well. The plate was left at room temperature for 5 min and the signal was measured on EnVision (PerkinElmer).
# Compounds in which an IC50 was not measured are designated as “N/A”.
# [3] = Homo sapiens; Jurkat cells, 1 hr compound pre-incubation, aCD3/aCD28/PMA stimulation 4 hr, One-Glo readout; read-out: NF-kB Reporter Assay IC50
# [4] = Jurkat cells, 1 hr compound pre-incubation, aCD3/aCD28/PMA stimulation 4 hr, One-Glo readout; read-out: NF-kB Reporter Assay IC50
# Sequence of Avi-tagged FL MALT-1 (Q9UDY8 whole entry): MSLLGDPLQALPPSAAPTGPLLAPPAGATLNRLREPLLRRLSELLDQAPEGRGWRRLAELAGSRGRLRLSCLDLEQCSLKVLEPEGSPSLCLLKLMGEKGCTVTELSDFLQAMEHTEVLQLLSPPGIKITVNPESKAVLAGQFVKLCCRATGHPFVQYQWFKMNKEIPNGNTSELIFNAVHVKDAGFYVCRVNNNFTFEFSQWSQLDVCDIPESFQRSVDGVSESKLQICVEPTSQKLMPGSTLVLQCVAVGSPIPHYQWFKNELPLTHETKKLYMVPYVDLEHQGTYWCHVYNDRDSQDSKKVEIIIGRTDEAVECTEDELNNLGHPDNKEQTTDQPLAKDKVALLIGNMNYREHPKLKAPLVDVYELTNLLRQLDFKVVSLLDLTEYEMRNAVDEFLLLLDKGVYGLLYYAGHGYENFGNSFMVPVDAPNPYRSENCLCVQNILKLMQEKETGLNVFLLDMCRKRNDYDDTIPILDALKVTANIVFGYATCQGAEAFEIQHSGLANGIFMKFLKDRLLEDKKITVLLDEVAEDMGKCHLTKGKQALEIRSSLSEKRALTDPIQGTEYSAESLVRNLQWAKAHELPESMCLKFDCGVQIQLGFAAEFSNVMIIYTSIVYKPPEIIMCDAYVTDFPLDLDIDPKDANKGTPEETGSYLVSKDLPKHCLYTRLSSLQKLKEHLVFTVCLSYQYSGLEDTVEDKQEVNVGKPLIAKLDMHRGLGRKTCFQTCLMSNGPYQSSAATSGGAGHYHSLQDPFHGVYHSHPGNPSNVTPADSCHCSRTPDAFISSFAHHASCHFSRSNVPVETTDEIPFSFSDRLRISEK
SMILES,IC50 [1] [nM],"IC50 [2, 3] [nM]","IC50 [2, 4] [nM]","IC50 ([2]; read-out: NF-kB Reporter Assay IC50; Jurkat cells, 1 hr compound pre-incubation, aCD3/aCD28/PMA stimulation 4 hr, One-Glo readout) [nM]"
"COc1ncc2cnn(C)c2c1NS(=O)(=O)c1cnn(-c2cc(C(C)OC)ccn2)c1 (single isomer, unassigned) [Compound I-272, N-(6-methoxy-1-methyl-1H-pyrazolo[4,3-c]pyridin-7-yl)-1-(4-(1-methoxyethyl)pyridin-2-yl)-1H-pyrazole-4-sulfonamide]",≤ 400,< 400,–,–
"COc1ncc2cnn(C)c2c1NS(=O)(=O)c1cnn(-c2cc(C(C)OC)ccn2)c1 (single isomer, unassigned) [Compound I-273, N-{6-methoxy-1-methylpyrazolo[4,3-c]pyridin-7-yl}-1-{4-[1-methoxyethyl]pyridin-2-yl}pyrazole-4-sulfonamide]",≤ 400,–,< 400,–
"CCC(O)c1ccnc(-n2cc(S(=O)(=O)Nc3c(OC)ccc4cnn(C)c34)cn2)c1 (single isomer, unassigned) [Compound I-280, 1-(4-(1-hydroxypropyl)pyridin-2-yl)-N-(6-methoxy-1-methyl-1H-indazol-7-yl)-1H-pyrazole-4-sulfonamide]",400 to 1000,–,–,< 400
"CCC(O)c1ccnc(-n2cc(S(=O)(=O)Nc3c(OC)ccc4cnn(C)c34)cn2)c1 (single isomer, unassigned) [Compound I-281, 1-(4-(1-hydroxypropyl)pyridin-2-yl)-N-(6-methoxy-1-methyl-1H-indazol-7-yl)-1H-pyrazole-4-sulfonamide]",400 to 1000,< 400,–,–
"COc1ccc2cnn(C)c2c1NS(=O)(=O)c1cnn(-c2cc(C(C)OC)ccn2)c1 (single isomer, unassigned) [Compound I-290, N-(6-methoxy-1-methyl-1H-indazol-7-yl)-1-(4-(1-methoxyethyl)pyridin-2-yl)-1H-pyrazole-4-sulfonamide]",≤ 400,< 400,–,–
"COc1ccc2cnn(C)c2c1NS(=O)(=O)c1cnn(-c2cc(C(C)OC)ccn2)c1 (single isomer, unassigned) [Compound I-291, N-(6-methoxy-1-methyl-1H-indazol-7-yl)-1-(4-(1-methoxyethyl)pyridin-2-yl)-1H-pyrazole-4-sulfonamide]",≤ 400,–,< 400,–
"COc1ncc2cnn(C)c2c1NS(=O)(=O)c1cnn(-c2cc(C(C)O)ccn2)c1 (single isomer, unassigned) [Compound I-292, 1-(4-(1-hydroxyethyl)pyridin-2-yl)-N-(6-methoxy-1-methyl-1H-pyrazolo[4,3-c]pyridin-7-yl)-1H-pyrazole-4-sulfonamide]",400 to 1000,400 to 1000,–,–
"COc1ncc2cnn(C)c2c1NS(=O)(=O)c1cnn(-c2cc(C(C)O)ccn2)c1 (single isomer, unassigned) [Compound I-293, 1-(4-(1-hydroxyethyl)pyridin-2-yl)-N-(6-methoxy-1-methyl-1H-pyrazolo[4,3-c]pyridin-7-yl)-1H-pyrazole-4-sulfonamide]",≤ 400,–,400 to 1000,–
"CCC(C)(O)c1ccnc(-n2cc(S(=O)(=O)Nc3c(OC)ccc4cnn(C)c34)cn2)c1 (single isomer, unassigned) [Compound I-315, 1-(4-(2-hydroxybutan-2-yl)pyridin-2-yl)-N-(6-methoxy-1-methyl-1H-indazol-7-yl)-1H-pyrazole-4-sulfonamide]",400 to 1000,< 400,–,–
"CCC(C)(OC)c1ccnc(-n2cc(S(=O)(=O)Nc3c(OC)ccc4cnn(C)c34)cn2)c1 (single isomer, unassigned) [Compound I-360, N-(6-methoxy-1-methyl-1H-indazol-7-yl)-1-(4-(2-methoxybutan-2-yl)pyridin-2-yl)-1H-pyrazole-4-sulfonamide]",≤ 400,< 400,–,–
"CCC(C)(OC)c1ccnc(-n2cc(S(=O)(=O)Nc3c(OC)ccc4cnn(C)c34)cn2)c1 (single isomer, unassigned) [Compound I-361, N-(6-methoxy-1-methyl-1H-indazol-7-yl)-1-(4-(2-methoxybutan-2-yl)pyridin-2-yl)-1H-pyrazole-4-sulfonamide]",≤ 400,–,< 400,–
"COc1ccc2cnn(C)c2c1NS(=O)(=O)c1cnn(-c2cc(C3(OC)CC(C)C3)ccn2)c1 (single isomer, unassigned) [Compound I-364, N-(6-methoxy-1-methyl-1H-indazol-7-yl)-1-(4-(1-methoxy-3-methylcyclobutyl)pyridin-2-yl)-1H-pyrazole-4-sulfonamide]",400 to 1000,< 400,–,–
"COc1ccc2cnn(C)c2c1NS(=O)(=O)c1cnn(-c2cc(C3(OC)CC(C)C3)ccn2)c1 (single isomer, unassigned) [Compound I-365, N-(6-methoxy-1-methyl-1H-indazol-7-yl)-1-(4-(1-methoxy-3-methylcyclobutyl)pyridin-2-yl)-1H-pyrazole-4-sulfonamide]",≤ 400,–,< 400,–
"COc1ccc2cnn(C)c2c1NS(=O)(=O)c1cnn(-c2cc(C3(F)CC(F)C3)ccn2)c1 (single isomer, unassigned) [Compound I-377, 1-(4-(1,3-difluorocyclobutyl)pyridin-2-yl)-N-(6-methoxy-1-methyl-1H-indazol-7-yl)-1H-pyrazole-4-sulfonamide]",400 to 1000,< 400,–,–
"COc1ccc2cnn(C)c2c1NS(=O)(=O)c1cnn(-c2cc(C3(F)CC(F)C3)ccn2)c1 (single isomer, unassigned) [Compound I-378, 1-(4-(1,3-difluorocyclobutyl)pyridin-2-yl)-N-(6-methoxy-1-methyl-1H-indazol-7-yl)-1H-pyrazole-4-sulfonamide]",≤ 400,–,< 400,–
"CCc1ccc2cnn(C)c2c1NS(=O)(=O)c1cnn(-c2ccnc(C(F)(F)F)n2)c1 [Compound I-11, N-(6-Ethyl-1-Methyl-1H-Indazol-7-yl)-1-(2-(Trifluoromethyl) Pyrimidin-4-yl)-1H-Pyrazole-4-Sulfonamide]",1000 to 2500,–,–,–
"CCc1ccc2cnn(C)c2c1NS(=O)(=O)c1cnn(-c2cccc(C(F)(F)F)n2)c1 [Compound I-12, N-(6-Ethyl-1-Methyl-1H-Indazol-7-yl)-1-(2-(Trifluoromethyl) Pyridin-2-yl)-1H-Pyrazole-4-Sulfonamide]",> 2500,–,–,–
"Cn1ncc2cccc(NS(=O)(=O)c3cnn(-c4cccc(C(F)(F)F)n4)c3)c21 [Compound I-13, N-(1-Methyl-1H-Indazol-7-yl)-1-(6-(Trifluoromethyl)Pyridin-2-yl)-1H-Pyrazole-4-Sulfonamide]",> 2500,–,–,–
